Reference: patent US20250241879A1, “CAPSAICIN SEQUENTIAL DOSING METHOD FOR TREATMENT OF KNEE JOINT PAIN” (priority 2018, published 2025)

Columns and labels:
[1] = system: human patients with chronic knee osteoarthritis; test: Treatment-emergent adverse events, SAEs and laboratory abnormalities after single intra-articular injection (Example 2); assay type: in vivo; details: for All TEAEs, (%) / Arthralgia TEAE, (%) / Hepatic enzyme increased TEAE, (%) / Influenza TEAE, (%) / Joint effusion TEAE, (%) / Nasopharyngitis TEAE, (%) / Upper respiratory tract infection TEAE, (%): through 24 weeks
Procedure: Human patients experiencing osteoarthritic knee joint pain received either placebo, a 0.5 mg intra-articular injection of capsaicin into the osteoarthritic knee joint, or a 1.0 mg intra-articular injection of capsaicin into the osteoarthritic knee joint. […]
(§1) Human patients aged 45-80 years with chronic knee osteoarthritis, stable moderate to severe pain, and intolerability to analgesics were randomized to receive a single intra-articular injection of placebo into the osteoarthritic knee, a single intra-articular injection of a 0.5 mg dose of capsaicin into the osteoarthritic knee, or a single intra-articular injection of a 1.0 mg dose of capsaicin into the osteoarthritic knee.
(§2) Safety assessments included treatment-emergent adverse events (TEAEs), serious AEs (SAEs), laboratory abnormalities, and procedural pain ratings (none, mild, moderate, moderately severe, severe). The procedure pain ratings characterize the extent of transient burning sensation experienced by patients due to administration of capsaicin.

[2] = system: human patients with chronic knee osteoarthritis; test: Procedural pain ratings (none, mild, moderate, moderately severe, severe) after intra-articular injection (Example 2); assay type: in vivo; details: 2 hours after injection of capsaicin (or placebo); all groups
From the text: as §2

[3] = system: osteoarthritic knee joint pain; test: Patient Global Impression of Change (PGIC), index knee (Example 2); assay type: in vivo, human; details: for PGIC: proportion of patients reporting significant improvement in the index knee: week 4, placebo 44%
Procedure: as §1
(§3) Patients completed Patient Global Impression of Change (PGIC; change vs baseline in index knee on 7-point scale: 1=very much improved; 7=very much worse, with scores of 1 or 2 indicating significant improvement) and Patient-specific Functional Scale (PSFS; rate≤3 important activities difficult to perform due to index knee pain on 0-10 scale: 0=able to perform; 10=unable to perform) at scheduled visits. Odds ratios for PGIC scores were calculated with chi-square tests. Changes in Western Ontario and McMaster Universities Osteoarthritis Index (WOMAC) B stiffness subscale and WOMAC C function subscale through week 24 were also assessed. PSFS, WOMAC B, and WOMAC C scores were evaluated using a mixed model for repeated measures. Statistical tests were 2-sided (alpha, P=0.10).

[4] = system: osteoarthritic knee joint pain; test: Patient-specific Functional Scale (PSFS) (Example 2); assay type: in vivo, human
Procedure: as §1, §3

[5] = system: osteoarthritic knee joint pain; test: WOMAC B stiffness subscale (Example 2); assay type: in vivo, human; details: 1.0 mg dose; through week 16; P=0.007
Procedure: as §1, §3

[6] = system: osteoarthritic knee joint pain; test: WOMAC C function subscale (Example 2); assay type: in vivo, human; details: 1.0 mg dose; through week 16; P=0.02
Procedure: as §1, §3

[7] = system: human patients with bilateral knee osteoarthritis; test: Procedure pain (NPRS) due to intraarticular trans-capsaicin, Breg pad vs ice pack cooling (Example 7); assay type: in vivo; details: Breg Knee WrapOn Polar Pad cooling compared to ice-pack cooling (Example 7)
Procedure: Human patients experiencing osteoarthritic knee joint pain were subjected to two different protocols for intraarticular administration of trans-capsaicin. Temporary pain expected due to administration of capsaicin was analyzed, along with the intraarticular temperature of the knee joint and the temperature of the patient's skin in the area to be cooled.
(§4) One of the protocols utilized a Breg Knee WrapOn Polar Pad (as illustrated in FIG. 1) that utilizes circulating ice-water to achieve cooling, where the pad is placed on skin surrounding the knee in order to cool the knee joint. The other protocol utilized ice-pack cooling, in which the patient's knee was wrapped with a stockinette and then the ice pack was positioned on top of the stockinette so that the ice pack is positioned over the patient's patella to thereby cool the knee joint. The ice pack was a LEADSTAR pain relief reusable cold therapy ice pack (size=6 inches). A temperature probe was placed into the intraarticular space of the patient's knee joint to measure intraarticular temperature of the knee joint. A temperature probe was also placed on the skin in the area to be cooled in order to measure skin temperature in the area to be cooled.
Five human patients suffering from moderate to severe painful bilateral knee osteoarthritis were recruited for this study evaluating the impact that cooling protocol has on the magnitude of temporary pain experienced by the patient due to administration of capsaicin. […] Patients that participated in the study passed the following screening criteria and meet the patient inclusion and exclusion criteria are set forth below. As part of patient screening, patients received an intradermal injection of 100 μL (100 μg) capsaicin into the non-dominant volar forearm. To be eligible to enter the study, patients were able to tolerate the capsaicin injection. Screening patients rated the pain from capsaicin injection at 5, 10, 20, and 30 minutes after injection using a 0-10 Numerical Pain Rating Scale, where “0” equals no pain and “10” equals worst possible pain.
as §4, with “ice pack (having a surface for application to the patient, wherein said surface has a diameter of approximately six inches) is positioned” for “ice pack is positioned”, “knee joint. A temperature” for “knee joint. The ice pack was a LEADSTAR pain relief reusable cold therapy ice pack (size=6 inches). A temperature”, “knee joint. At the discretion of the physician performing the procedure, in order to reduce discomfort for the patient, the protocol authorized the physician to instill a volume of 1-2 cc of 2% w/w lidocaine (without epinephrine) into the skin and subcutaneous tissue of the knee at the site of intra-articular probe insertion. A temperature” for “knee joint. A temperature”
One the first day of the study, patients were randomized so that (i) three patients receiving cooling of the knee joint using the Breg Knee WrapOn Polar Pad and (ii) two patients will receive ice-pack cooling over the patella as set forth above. Patients were subjected to the following procedure: • Placement of intraarticular temperature probe and skin temperature probe. […]

[8] = Capsaicin 1.0 mg Dose (n = 71), listed as capsaicin
[9] = Capsaicin at Either 0.5 mg or 1.0 Dose (n = 105)
[10] = Capsaicin at Either 0.5 mg or 1.0 Dose (n = 105), listed as capsaicin
[11] = Capsaicin at 0.5 mg Dose, Week 4
[12] = Capsaicin at 0.5 mg Dose, Week 8
[13] = Capsaicin at 0.5 mg Dose, Week 12
[14] = Capsaicin at 0.5 mg Dose, Week 16
[15] = Capsaicin at 0.5 mg Dose, Week 24
[16] = Capsaicin at 1.0 mg Dose, Week 4
[17] = Capsaicin at 1.0 mg Dose, Week 8
[18] = Capsaicin at 1.0 mg Dose, Week 12
[19] = Capsaicin at 1.0 mg Dose, Week 16
[20] = Capsaicin at 1.0 mg Dose, Week 24

SMILES: COc1cc(CNC(=O)CCCCC=CC(C)C)ccc1O [Capsaicin, N-[(4-hydroxy-3-methoxyphenyl)methyl]-8-methylnon-6-enamide]
- All TEAEs, (%) ([1]; Capsaicin 0.5 mg Dose (n = 34)): (47) %
- Arthralgia TEAE, (%) ([1]; Capsaicin 0.5 mg Dose (n = 34)): (8.8) %
- Hepatic enzyme increased TEAE, (%) ([1]; Capsaicin 0.5 mg Dose (n = 34)): (5.9) %
- Influenza TEAE, (%) ([1]; Capsaicin 0.5 mg Dose (n = 34)): (2.9) %
- Joint effusion TEAE, (%) ([1]; Capsaicin 0.5 mg Dose (n = 34)): (8.8) %
- Nasopharyngitis TEAE, (%) ([1]; Capsaicin 0.5 mg Dose (n = 34)): (2.9) %
- Upper respiratory tract infection TEAE, (%) ([1]; Capsaicin 0.5 mg Dose (n = 34)): (5.9) %
- All TEAEs, (%) ([1]; Capsaicin 0.5 mg Dose (n = 34), listed as capsaicin): 47%
- All TEAEs, (%) ([1]; Capsaicin 1.0 mg Dose (n = 71)): (30) %
- Arthralgia TEAE, (%) ([1]; Capsaicin 1.0 mg Dose (n = 71)): (7.0) %
- Hepatic enzyme increased TEAE, (%) ([1]; Capsaicin 1.0 mg Dose (n = 71)): (1.4) %
- Influenza TEAE, (%) ([1]; Capsaicin 1.0 mg Dose (n = 71)): (2.8) %
- Nasopharyngitis TEAE, (%) ([1]; Capsaicin 1.0 mg Dose (n = 71)): (2.8) %
- Upper respiratory tract infection TEAE, (%) ([1]; Capsaicin 1.0 mg Dose (n = 71)): (4.2) %
- All TEAEs, (%) [1, 8]: 30%
- Arthralgia TEAE, (%) [1, 8]: 7.0%
- All TEAEs, (%) [1, 9]: (35) %
- Arthralgia TEAE, (%) [1, 9]: (7.6) %
- Hepatic enzyme increased TEAE, (%) [1, 9]: (2.9) %
- Influenza TEAE, (%) [1, 9]: (2.9) %
- Joint effusion TEAE, (%) [1, 9]: (2.9) %
- Nasopharyngitis TEAE, (%) [1, 9]: (2.9) %
- Upper respiratory tract infection TEAE, (%) [1, 9]: (4.8) %
- Arthralgia TEAE, (%) [1, 10]: 7.6%
- Upper respiratory tract infection TEAE, (%) [1, 10]: 4.8%
- Laboratory abnormalities ([1]; all groups, most mild and associated with comorbidities): Few laboratory abnormalities were observed
- TEAEs mild in severity, patients ([1]; capsaicin 0.5 mg dose group): 29%
- TEAEs moderate in severity, patients ([1]; capsaicin 0.5 mg dose group): 18%
- Serious AEs (SAEs) ([1]; capsaicin 0.5 mg dose group, not considered treatment related): One SAE (shoulder pain from osteoarthritis)
- TEAEs mild in severity, patients ([1]; capsaicin 1.0 mg dose group): 20%
- TEAEs moderate in severity, patients ([1]; capsaicin 1.0 mg dose group): 9.9%
- Tolerability / safety profile ([1]; single injection 1.0 mg dose, up to 24 weeks): well tolerated with a safety profile generally comparable to placebo
- Patients reporting mild procedural pain [2]: 39%
- Patients reporting no procedural pain [2]: 50%
- PGIC: proportion of patients reporting significant improvement in the index knee ([3]; 0.5 mg dose, P=0.18): 58%
- PGIC: proportion of patients reporting significant improvement in the index knee ([3]; 1.0 mg dose, P=0.01): 64%
- PGIC: likelihood of significant improvement compared with placebo ([3]; 1.0 mg dose, weeks 4, 8 and 12): greater than two-fold likelihood
- PGIC: Odds Ratio vs Placebo [3, 11]: 1.76 (P = 0.18)
- PGIC: Odds Ratio vs Placebo [3, 12]: 1.89 (P = 0.14)
- PGIC: Odds Ratio vs Placebo [3, 13]: 2.75 (P = 0.03)
- PGIC: Odds Ratio vs Placebo [3, 14]: 2.37 (P = 0.05)
- PGIC: Odds Ratio vs Placebo [3, 15]: 1.68 (P = 0.23)
- PGIC: Odds Ratio vs Placebo [3, 16]: 2.34 (P = 0.01)
- PGIC: Odds Ratio vs Placebo [3, 17]: 2.50 (P = 0.008)
- PGIC: Odds Ratio vs Placebo [3, 18]: 2.40 (P = 0.01)
- PGIC: Odds Ratio vs Placebo [3, 19]: 1.85 (P = 0.07)
- PGIC: Odds Ratio vs Placebo [3, 20]: 1.64 (P = 0.15)
- PSFS: ability to perform activities versus placebo ([4]; 1.0 mg dose, weeks 4-16): significantly improved patients' ability to perform activities versus placebo
- PSFS: LSMD versus Placebo [4, 11]: 0.01 (P = 0.98)
- PSFS: LSMD versus Placebo [4, 12]: −0.03 (P = 0.96)
- PSFS: LSMD versus Placebo [4, 13]: −0.4 (P = 0.40)
- PSFS: LSMD versus Placebo [4, 14]: −0.5 (P = 0.35)
- PSFS: LSMD versus Placebo [4, 15]: −0.05 (P = 0.93)
- PSFS: LSMD versus Placebo [4, 16]: −1.4 (P = 0.0006)
- PSFS: LSMD versus Placebo [4, 17]: −0.9 (P = 0.03)
- PSFS: LSMD versus Placebo [4, 18]: −1.1 (P = 0.007)
- PSFS: LSMD versus Placebo [4, 19]: −0.9 (P = 0.04)
- PSFS: LSMD versus Placebo [4, 20]: −0.5 (P = 0.27)
- Improvement in physical function versus placebo ([4]; single injection 1.0 mg dose, moderate to severe osteoarthritis knee pain): statistically significant improvements in physical function for 12-16 weeks
- WOMAC B score, least squares mean difference versus placebo [5]: −2.1
- WOMAC C score, least squares mean difference versus placebo [6]: −14.8
- Pain due to capsaicin injection, comparison of cooling methods [7]: less when Breg Knee WrapOn Polar Pad cooling was used
